Source: paper PMC10854695, “Using Flavonoid Substitution Status to Predict Anticancer Effects in Human Melanoma Cancers: An In Vitro Study” (Cancers, 2024)
Where two headings read alike, the source gives them in different places.

How the values were obtained:
C32 melanoma cells [1] = test: Neutral red uptake (NRU) assay, C32; conditions: Homo sapiens
Description: (§1) The NRU (neutral red uptake) was conducted as previously described by Szoka and co-workers, with some modifications [22]. Briefly, melanoma cells and fibroblasts were seeded in microplates at the density of 1 × 10^4 cells per well and allowed to adhere for 24 h. […] After treatment, the culture medium was replaced with a neutral red solution (40 µg/mL). An additional 2 h of incubation was performed. The neutral red solution was then removed and the neutral red accumulated in the cells was dissolved in 50% EtOH with 1% of the glacial acetic acid. The absorbance was estimated at 540 nm and IC50 values were calculated using GraphPad Prism software (GraphPad Software, San Diego, CA, USA).

A375 melanoma cells [2] = test: [3H]-thymidine incorporation (DNA biosynthesis), A375; format: cell-based, human; conditions: read-out: IC50, effect on DNA biosynthesis ([3H]-thymidine incorporation)
Description: The inhibition of DNA biosynthesis was evaluated using [^3H]-thymidine incorporation into the DNA of melanoma cells (C32, A375) and fibroblasts treated with the studied compounds [21]. The cells were briefly seeded in 24-well plates (1 × 10^5 cells per well) and allowed to adhere for 24 h. […] After incubation for 24, 48, and 72 h, the cells were rinsed three times with PBS. Then, cells were lysed in 1 mL of 0.1 M NaOH containing 1% SDS. The cell lysate was moved into scintillation vials containing scintillation liquid, and the radioactivity of the samples was measured using a liquid scintillation analyzer (Perkin-Elmer, Waltham, MA, USA).

[3] = test system: cleaved caspase-3 and cleaved caspase-7 in A375 cells; test: Immunofluorescence of cleaved caspase-3/-7, A375; format: cell-based, human; conditions: A375, 48 h, immunofluorescent staining
Description: Firstly, to examine fluorescent signals, cells were placed in the bottom of 96-well black plates at 1 × 10^4 cells per well and permitted to adhere for 24 h. […] After incubating and removing the medium, cells were fixed in 4% paraformaldehyde for 15 min. Later, cells were rinsed three times with PBS and permeabilized with 0.1% Triton X-100 for 5 min at room temperature. The 10% heat-inactivated goat serum in the PBS was used to block non-specific binding. Subsequently, cells were treated with the following antibodies overnight: anti-cleaved caspase 3 and anti-cleaved caspase-7. […] Cell nuclei were stained with Hoechst 33342 and F-actin was stained with Phalloidin-Atto 488. Fluorescent signals were captured using a BD Pathway 855 confocal microscope (Becton Dickinson, Franklin Lakes, NJ, USA). The mean fluorescence intensity was calculated using ImageJ software (National Institutes of Health, Bethesda, Rockville, MD, USA).

[4] = test system: human skin fibroblasts (CCD25Sk); test: [3H]-thymidine incorporation (DNA biosynthesis), normal cells; format: cell-based; conditions: Homo sapiens, Skin fibroblast, read-out: IC50, effect on DNA biosynthesis ([3H]-thymidine incorporation)
C32 melanoma cells [5] = test: [3H]-thymidine incorporation (DNA biosynthesis), C32; format: cell-based, human; conditions: read-out: IC50, effect on DNA biosynthesis ([3H]-thymidine incorporation)
[6] = Neutral red uptake (NRU) assay, normal cells; conditions: human, human skin fibroblasts (CCD25Sk)
Description: as §1

A375 melanoma cells [7] = test: Apoptosis assay, annexin V/PI flow cytometry, A375; format: cell-based, human; conditions: 48 h
Description: (§2) Firstly, cells were placed in 6-well plates at a density of 1 × 10^5 cells per well and allowed to adhere for 24 h. Then, cells were treated with 25 µM, 50 µM, and 100 μM of the selected flavonoids (1, 6, 15, 16, 17, 37) and incubated for 48 h. Floating and adherent cells were collected and assayed using the manufacturer’s protocol supported by the Dead Cell Apoptosis Kit for flow cytometry. Concisely, 100 μL of an annexin-binding buffer containing a 5 μL annexin V-FITC conjugate solution and 1 μg/mL PI (propidium iodide) was used to disperse the cells. After 15 min of incubation, an additional 400 μL of the mentioned buffer was added. The cells were analyzed with a DxFLEX flow cytometer (Beckman Coulter, Brea, CA, USA).

in vitro = conditions: human
Description: (§3) The MTT colorimetric assay was performed as a preliminary evaluation of the cytotoxicity of the selected flavonoids according to the method described and validated by Strawa et al. [21]. Briefly, melanoma cells and fibroblasts were seeded in 96-well microplates at a density of 1 × 10^4 cells per well. Fibroblasts were used as a control cell line in order to assess the selectivity of the compounds. […] Subsequently, the cells were washed with PBS, incubated with MTT solution for 2 h, and lysed with dimethyl sulfoxide (DMSO) supplemented with 1% (v/v) Sorensen’s glycine buffer. The absorbance was measured using a microplate reader (EPOCH 2, BioTek, Winooski, VT, USA) at a wavelength of 570 nm. The compounds were used at a final DMSO concentration of no more than 0.1% (v/v) in each well. The results were generated from at least three independent experiments. […] The IC50 values were calculated with GraphPad Prism 9 software (GraphPad Software, San Diego, CA, USA).

C32 melanoma cells [8] = test: MTT cell viability assay, C32; conditions: Homo sapiens, read-out: IC50, cytotoxic activity, MTT test;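 also: MTT added for 2 h, cells lysed in DMSO, absorbance read at 570 nm, compound vehicle kept at or below 0.1% DMSO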
C32 melanoma cells [9] = test: Apoptosis assay, annexin V/PI flow cytometry, C32; format: cell-based, human; conditions: C32, 25 µM, 48 h
Description: as §2

A375 melanoma cells [10] = test: Neutral red uptake (NRU) assay, A375; conditions: Homo sapiens, read-out: IC50, cytotoxic activity, NRU assay
Description: as §1

A375 cells [11] = test system: A375 cells; set-up: method as in PMID 28260058; conditions: 40 µM; cited from earlier work
[12] = test system: caspases, PARP, phospho-RSK in C32 cells; test: Western immunoblot of apoptosis mediators and RSK, C32; format: cell-based, human; conditions: C32, 48 h, Western blot
Description: (§4) Floating cells were harvested by centrifugation of the conditioned media (300× g, 5 min). Cell pellet and adherent cells were lysed in a cell lysis buffer supplemented with inhibitors of proteases and phosphatases. The cell lysate was sonicated (2 × 10 s) on ice with an ultrasonic homogenizer (UP200S, Hielscher Ultrasonics GmbH, Teltow, Germany) and centrifuged for 10 min at 10,000× g. The supernatant was collected and stored in a freezer at −70 °C. Protein concentrations in the cell supernatants were determined using a Lowry assay. Obtained proteins were dissolved on SDS-PAGE gels (7.5%, 10%, or 12%) using the Mini-Protean Tetra system. The proteins were transferred to nitrocellulose membranes using the Mini Trans-Blot Cell wet blotting system. The 5% skim milk was used to block membranes. Then, membranes were probed for 24 h at 4 °C with the following antibodies: anti-phospho-RSK, anti-RSK, anti-PARP, anti-cleaved PARP, anti-caspase-8, anti-caspase-9, anti-caspase-7, anti-caspase-3, and anti-actin. Membranes were incubated with an ECL-HRP (enhanced chemiluminescence-horseradish peroxidase) substrate, and the signal was spotted using the BioSpectrum Imaging System and VisionWorks LS software 7.0 (Ultra-Violet Products, Ltd., San Gabriel, CA, USA). The intensity of the bands was quantified by densitometric analysis using UVIBand software, version 15.08d (Uvitec Ltd., Cambridge, UK).

A375 melanoma cells [13] = test: MTT cell viability assay, A375; conditions: Homo sapiens;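 also: Read-out is formazan absorbance at 570 nm after 2 h with MTT, with compounds in at most 0.1% v/v DMSO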
Description: as §3

A375 cells [14] = test system: A375 cells; set-up: method as in PMID 26911838; conditions: 10 and 20 μM, dose-dependent; cited from earlier work
[15] = test system: caspases, PARP, phospho-RSK in A375 cells; test: Western immunoblot of apoptosis mediators and RSK, A375; format: cell-based, human; conditions: A375, 48 h, Western blot
Description: as §4

[16] = test system: cleaved caspase-3 and cleaved caspase-7 in C32 cells; test: Immunofluorescence of cleaved caspase-3/-7, C32; format: cell-based, human; conditions: C32, 48 h, immunofluorescent staining
[17] = test system: G-361 malignant melanoma cell line; set-up: method as in PMID 36991237; conditions: read-out: IC50, inhibition of viability, MTS test; cited from earlier work
[18] = MTT cell viability assay, normal cells; conditions: human, human skin fibroblasts (CCD25Sk);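 also: fibroblasts served as non-cancer comparison line for selectivity versus melanoma cells, MTT reduction read as absorbance at 570 nm after 2 h dye exposure, compounds in ≤0.1% DMSO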
Description: as §3

[19] = test system: SK-MEL-2 malignant melanoma cell line; set-up: method as in PMID 36991237; conditions: read-out: IC50, inhibition of viability, MTS test; cited from earlier work
[20] = C32, 24 h, read-out: IC50, cytotoxic activity, NRU assay, C32, 24 h
[21] = C32, 48 h, read-out: IC50, cytotoxic activity, NRU assay, C32, 48 h
[22] = C32, 72 h, read-out: IC50, cytotoxic activity, NRU assay, C32, 72 h
[23] = Homo sapiens, A-375, A375, 24 h
[24] = Homo sapiens, A-375, A375, 48 h
[25] = Homo sapiens, A-375, A375, 72 h
[26] = A-375, 24 h, read-out: IC50, cytotoxic activity, MTT test, A375, 24 h
[27] = A-375, 48 h, read-out: IC50, cytotoxic activity, MTT test, A375, 48 h
[28] = A-375, 72 h, read-out: IC50, cytotoxic activity, MTT test, A375, 72 h

Row | SMILES | IC50 (C32 melanoma cells [1]; [20]) | IC50 (C32 melanoma cells [1]; [21]) | IC50 (C32 melanoma cells [1]; [22]) | IC50 (A375 melanoma cells [2]; A375, 48 h) | IC50 (A375 melanoma cells [2]; [23]) | IC50 (A375 melanoma cells [2]; [24]) | IC50 (A375 melanoma cells [2]; [25]) | IC50 ([4]; 24 h) | IC50 ([4]; 48 h) | IC50 ([4]; 72 h) | IC50 (C32 melanoma cells [5]; C32, 48 h) | IC50 (C32 melanoma cells [5]; Homo sapiens, C32, C32, 24 h) | IC50 (C32 melanoma cells [5]; Homo sapiens, C32, C32, 48 h) | IC50 (C32 melanoma cells [5]; Homo sapiens, C32, C32, 72 h) | IC50 at 24 h [6] | IC50 at 48 h [6] | IC50 at 72 h [6] | IC50 (C32 melanoma cells [8]; C32, 24 h) | IC50 (C32 melanoma cells [8]; C32, 48 h) | IC50 (C32 melanoma cells [8]; C32, 72 h) | other results
1 | O=c1cc(-c2ccc(O)cc2)oc2cc(O)cc(O)c12 [Compound 1, apigenin] | 100 to 200 µM | 25.7 ± 1.6 µM | 22.4 ± 1.5 µM | 28.6 ± 1.8 µM | 87.7 ± 4.2 µM | 28.6 ± 0.84 µM | 23.4 ± 1.6 µM | 188 ± 8.1 µM | 189 ± 9.5 µM | > 200 µM | 27 ± 1.4 µM | > 200 µM | 27.1 ± 0.49 µM | 22.5 ± 1.2 µM | > 200 µM | 87.8 ± 5.8 µM | 58 ± 3.2 µM | > 200 µM | 63.1 ± 4.7 µM | 31.8 ± 2.5 µM | level of cleaved caspase-3 [3]: slightly increased; level of early apoptotic cells (A375 melanoma cells [7]; A375, 50 µM): 34.2 ± 2.8%; level of late apoptotic cells (A375 melanoma cells [7]; A375, 50 µM): 7.1 ± 1.6%; IC50 at 24 h (in vitro): > 200 µM; IC50 at 48 h (in vitro): > 200 µM; IC50 at 72 h (in vitro): 100 to 200 µM; percentage of early apoptotic cells (C32 melanoma cells [9]): 13.3 ± 2.4%; percentage of late apoptotic cells (C32 melanoma cells [9]): 29.4 ± 3.3%; IC50 (A375 melanoma cells [10]; A-375, 24 h): 64.5 ± 4.3 µM; IC50 (A375 melanoma cells [10]; A-375, 48 h): 24.7 ± 2.4 µM; IC50 (A375 melanoma cells [10]; A-375, 72 h): 21.2 ± 1.4 µM; A375 cell viability, MTT assay (A375 cells [11]): decreased A375 cell viability; cleaved PARP and caspase-9 [12]: generated cleaved PARP and caspase-9; IC50 (A375 melanoma cells [13]; [26]): > 200 µM; IC50 (A375 melanoma cells [13]; [27]): 31.9 ± 3 µM; IC50 (A375 melanoma cells [13]; [28]): 20.7 ± 1.5 µM; A375 cell motility and invasion (A375 cells [14]): significantly inhibited; cleavage of initiator caspases, caspase-9 and caspase-8 [15]: cleavage of both initiator caspases; levels of the caspases-3 and -7 zymogens [15]: decreased levels; caspase-3 expression [16]: notably extended
2 | O=c1cc(-c2ccccc2)oc2c(O)c(O)ccc12 [Compound 16, 7,8-dihydroxyflavone] | > 200 µM | 19.9 ± 1.2 µM | 16.5 ± 2.1 µM | 29.7 ± 1.6 µM | 62.1 ± 3.9 µM | 29.7 ± 0.62 µM | 20.5 ± 2.2 µM | 81.6 ± 5.8 µM | 64.6 ± 2.8 µM | 37 ± 2.5 µM | 18.4 ± 1.4 µM | 38.1 ± 1.5 µM | 18.4 ± 0.42 µM | 12.8 ± 0.9 µM | > 200 µM | 100 to 200 µM | 72.9 ± 5.6 µM | 100 to 200 µM | 39.2 ± 2.6 µM | 26.2 ± 2.8 µM | IC50 [17]: 200 to 250 µM; IC50 at 24 h [18]: > 200 µM; IC50 at 48 h [18]: 100 to 200 µM; IC50 at 72 h [18]: 93.3 ± 8 µM; level of early apoptotic cells (A375 melanoma cells [7]; A375, 25 µM): 49.1 ± 3.9%; level of late apoptotic cells (A375 melanoma cells [7]; A375, 25 µM): 6.4 ± 1.5%; IC50 (A375 melanoma cells [10]; A-375, 24 h): 100 to 200 µM; IC50 (A375 melanoma cells [10]; A-375, 48 h): 36 ± 3.5 µM; IC50 (A375 melanoma cells [10]; A-375, 72 h): 27.4 ± 2.4 µM; IC50 [19]: 200 to 250 µM; IC50 (A375 melanoma cells [13]; [26]): 100 to 200 µM; IC50 (A375 melanoma cells [13]; [27]): 33.2 ± 3.2 µM; IC50 (A375 melanoma cells [13]; [28]): 20.5 ± 2.2 µM; cleavage of caspase-9 [15]: weak cleavage; expression of cleaved caspase-8 [15]: increased; phosphorylation of the RSK protein [15]: impaired; level of the cleaved caspase-7 [16]: slightly increased
